Measured values as given in patent US20110082101A1, “COMBINATIONS COMPRISING EPOTHILONES AND ANTI-METABOLITES” (priority 2002, published 2011).

Tests used:
advanced renal cancer = test: Treatment of a human patient having advanced renal cancer with epothilone B plus capecitabine; assay type: in vivo; conditions: Example 1, one human patient, combination: epothilone B 0.5 mg/m^2 five minutes bolus infusion weekly for 3 weeks, one week off, plus capecitabine orally 1250 mg/m^2 twice daily for two weeks, cycle repeated several times
Description: A human patient having advanced renal cancer receives 0.5 mg/m^2 of epothilone B as a five minutes bolus infusion weekly for 3 weeks followed by one week off. Starting in the second week of the epothilone treatment and at least two hours after said treatment, capecitabine is applied orally to said patient twice daily at a dosage of 1250 mg/m^2 for two weeks followed by one week off. The whole treatment cycle is applied to the patient several times. Stable disease is observed for about 8 months.

advanced colon cancer = test: Treatment of a human patient having advanced colon cancer with epothilone B plus gemcitabine hydrochloride; assay type: in vivo; conditions: Example 5, one human patient, combination: epothilone B 0.5 mg/m^2 five minutes bolus infusion weekly for 3 weeks, one week off, plus gemcitabine hydrochloride 800 mg/m^2 twice daily, cycle repeated several times
Description: A human patient having advanced colon cancer receives 0.5 mg/m^2 of epothilone B as a five minutes bolus infusion weekly for 3 weeks followed by one week off. Immediately following said treatment, gemcitabine hydrochloride is applied orally to said patient twice daily at a dosage of 800 mg/m^2. The whole treatment cycle is applied to the patient several times. Stable disease is observed for about […] months.

C/C(=C\c1csc(C)n1)[C@@H]1C[C@@H]2O[C@]2(C)CCC[C@H](C)[C@H](O)[C@@H](C)C(=O)C(C)(C)[C@@H](O)CC(=O)O1 [epothilone B]
Stable disease observed for (duration) (advanced renal cancer): about 8 months
Stable disease observed for (duration) (advanced colon cancer): about 3%
